In patent US9113629B2, “4-amino-6-(4-substituted-phenyl)-picolinates and 6-amino-2-(4-substituted-phenyl)-pyrimidine-4-carboxylates and their use as herbicides” (DOW AGROSCIENCES LLC, priority 2013, dated 2015):

Key:
Experiment in all cases: Post-emergent Test III, herbicidal activity in wheat and barley
Format in all cases: in vivo
[1] = tested on: KCHSC: kochia (Kochia scoparia); conditions: 21 days after application; for pest or weed control at 35 g/ha: 35 g ai/ha; for pest or weed control at 70 g/ha: 70 g ai/ha; for GR50 KCHSC / GR80 KCHSC: probit analysis; for GR50 KCHSC: dose for 50 percent growth reduction; for GR80 KCHSC: dose for 80 percent growth reduction
Outline: (§1)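 GR20, GR50, GR80 and GR90 come from probit analysis of visual injury scores (0 = none, 100 = complete kill) taken 21 d after treatment. Foliar application was by track sprayer delivering 187 L/ha at five rates, from high down to 1/16×, onto greenhouse plants at the 2–3 leaf stage, with solvent-blank controls.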

[2] = tested on: MATSS: scented mayweed (Matricaria chamomilla), pineappleweed (Matricaria matricarioides); conditions: 21 days after application; for pest or weed control at 35 g/ha: 35 g ai/ha; for pest or weed control at 70 g/ha: 70 g ai/ha; for GR50 MATSS / GR80 MATSS: probit analysis; for GR50 MATSS: dose for 50 percent growth reduction; for GR80 MATSS: dose for 80 percent growth reduction
Outline: as §1

[3] = tested on: SASKR: Russian thistle (Salsola iberica); conditions: 21 days after application; for pest or weed control at 35 g/ha: 35 g ai/ha; for pest or weed control at 70 g/ha: 70 g ai/ha; for GR50 SASKR / GR80 SASKR: probit analysis; for GR50 SASKR: dose for 50 percent growth reduction; for GR80 SASKR: dose for 80 percent growth reduction
Outline: as §1

[4] = tested on: TRZSS: wheat, including spring and winter (Triticum aestivum); conditions: 21 days after application; for pest or weed control at 35 g/ha: 35 g ai/ha; for pest or weed control at 70 g/ha: 70 g ai/ha; for GR20 TRZSS: probit analysis, dose for 20 percent growth reduction (crop)
Outline: as §1

[5] = tested on: VERPE: bird's-eye speedwell (veronica persica); conditions: 21 days after application; for pest or weed control at 35 g/ha: 35 g ai/ha; for pest or weed control at 70 g/ha: 70 g ai/ha; for GR50 VERPE / GR80 VERPE: probit analysis; for GR50 VERPE: dose for 50 percent growth reduction; for GR80 VERPE: dose for 80 percent growth reduction
Outline: as §1

[6] = tested on: HORSS: barley, including spring and winter (Hordeum vulgare); conditions: 21 days after application; for pest or weed control at 35 g/ha: 35 g ai/ha; for pest or weed control at 70 g/ha: 70 g ai/ha; for GR20 HORSS: probit analysis, dose for 20 percent growth reduction (crop)
Outline: as §1

[7] = tested on: VIOSS: wild pansy (Viola tricolor), field violet (Viola arvensis); conditions: 21 days after application; for pest or weed control at 35 g/ha: 35 g ai/ha; for pest or weed control at 70 g/ha: 70 g ai/ha; for GR50 VIOSS / GR80 VIOSS: probit analysis; for GR50 VIOSS: dose for 50 percent growth reduction; for GR80 VIOSS: dose for 80 percent growth reduction
Outline: as §1

[8] = Bassia scoparia, post-emergence, 504 h, read-out: Visual Gorowth Reduction (%) 21 days After Application KCHSC
[9] = Matricaria chamomilla, post-emergence, 504 h, read-out: Visual Gorowth Reduction (%) 21 days After Application MATSS
[10] = Salsola tragus, post-emergence, 504 h, read-out: Visual Gorowth Reduction (%) 21 days After Application SASKR
[11] = Triticum aestivum, post-emergence, 504 h, read-out: Visual Gorowth Reduction (%) 21 days After Application TRZSS
[12] = Veronica persica, post-emergence, 504 h, read-out: Visual Gorowth Reduction (%) 21 days After Application VERPE
[13] = Hordeum vulgare, post-emergence, 504 h, read-out: Visual Gorowth Reduction (%) 21 days After Application HORSS
[14] = Viola tricolor, post-emergence, 504 h, read-out: Visual Gorowth Reduction (%) 21 days After Application VIOSS

Structure (SMILES)	pest or weed control at 35 g/ha [1, 8]	pest or weed control at 70 g/ha [1, 8]	GR50 KCHSC [1]	GR80 KCHSC [1]	pest or weed control at 35 g/ha [2, 9]	pest or weed control at 70 g/ha [2, 9]	GR50 MATSS [2]	GR80 MATSS [2]	pest or weed control at 35 g/ha [3, 10]	pest or weed control at 70 g/ha [3, 10]	GR50 SASKR [3]	GR80 SASKR [3]	pest or weed control at 35 g/ha [4, 11]	pest or weed control at 70 g/ha [4, 11]	GR20 TRZSS [4]	pest or weed control at 35 g/ha [5, 12]	pest or weed control at 70 g/ha [5, 12]	GR50 VERPE [5]	GR80 VERPE [5]	pest or weed control at 35 g/ha [6, 13]	further results
COC(=O)c1nc(-c2ccc(Br)c(F)c2F)nc(N)c1OC [Compound 122, methyl 6-amino-2-(4-bromo-2,3-difluorophenyl)-5-methoxypyrimidine-4-carboxylate]	85 to 94%	95 to 100%	5 g ai/ha	14 g ai/ha	0 to 29%	30 to 44%	>140 g ai/ha	>140 g ai/ha	95 to 100%	95 to 100%	<17.5 g ai/ha	<17.5 g ai/ha	75 to 84%	85 to 94%	1 g ai/ha	95 to 100%	95 to 100%	1 g ai/ha	2 g ai/ha	60 to 74%	pest or weed control at 70 g/ha [6, 13]: 85 to 94%; GR20 HORSS [6]: 3 g ai/ha; pest or weed control at 35 g/ha [7, 14]: 95 to 100%; pest or weed control at 70 g/ha [7, 14]: 95 to 100%; GR50 VIOSS [7]: 10 g ai/ha; GR80 VIOSS [7]: 21 g ai/ha
COC(=O)c1nc(-c2ccc(I)c(F)c2F)cc(N)c1Cl [Compound 129, Methyl 4-amino-3-chloro-6-(2,3-difluoro-4-iodophenyl)picolinate]	85 to 94%	95 to 100%	7 g ai/ha	21 g ai/ha	0 to 29%	30 to 44%	89 g ai/ha	131 g ai/ha	75 to 84%	85 to 94%	6 g ai/ha	41 g ai/ha	75 to 84%	85 to 94%	1 g ai/ha	30 to 44%	45 to 59%	92 g ai/ha	>140 g ai/ha	85 to 94%	pest or weed control at 70 g/ha [6, 13]: 85 to 94%; GR20 HORSS [6]: 1 g ai/ha; pest or weed control at 35 g/ha [7, 14]: 75 to 84%; pest or weed control at 70 g/ha [7, 14]: 95 to 100%; GR50 VIOSS [7]: 17 g ai/ha; GR80 VIOSS [7]: 34 g ai/ha
COC(=O)c1nc(-c2ccc(I)c(F)c2)c(F)c(N)c1Cl [Compound 132]	85 to 94%	85 to 94%	4 g ai/ha	20 g ai/ha	0 to 29%	30 to 44%	>140 g ai/ha	>140 g ai/ha	75 to 84%	75 to 84%	1 g ai/ha	66 g ai/ha	60 to 74%	60 to 74%	10 g ai/ha	0 to 29%	75 to 84%	58 g ai/ha	99 g ai/ha	60 to 74%	pest or weed control at 140 g/ha ([1]; Bassia scoparia, post-emergence, 504 h, 140 g ai/ha, read-out: Visual Gorowth Reduction (%) 21 days After Application KCHSC): 95 to 100%; pest or weed control at 140 g/ha ([2]; Matricaria chamomilla, post-emergence, 504 h, 140 g ai/ha, read-out: Visual Gorowth Reduction (%) 21 days After Application MATSS): 30 to 44%; pest or weed control at 140 g/ha ([3]; Salsola tragus, post-emergence, 504 h, 140 g ai/ha, read-out: Visual Gorowth Reduction (%) 21 days After Application SASKR): 75 to 84%; pest or weed control at 140 g/ha ([4]; Triticum aestivum, post-emergence, 504 h, 140 g ai/ha, read-out: Visual Gorowth Reduction (%) 21 days After Application TRZSS): 75 to 84%; pest or weed control at 140 g/ha ([5]; Veronica persica, post-emergence, 504 h, 140 g ai/ha, read-out: Visual Gorowth Reduction (%) 21 days After Application VERPE): 85 to 94%; pest or weed control at 70 g/ha [6, 13]: 75 to 84%; pest or weed control at 140 g/ha ([6]; Hordeum vulgare, post-emergence, 504 h, 140 g ai/ha, read-out: Visual Gorowth Reduction (%) 21 days After Application HORSS): 95 to 100%; GR20 HORSS [6]: 9 g ai/ha; pest or weed control at 35 g/ha [7, 14]: 95 to 100%; pest or weed control at 70 g/ha [7, 14]: 95 to 100%; pest or weed control at 140 g/ha ([7]; Viola tricolor, post-emergence, 504 h, 140 g ai/ha, read-out: Visual Gorowth Reduction (%) 21 days After Application VIOSS): 95 to 100%; GR50 VIOSS [7]: 9 g ai/ha; GR80 VIOSS [7]: 17 g ai/ha
Nc1c(F)c(-c2ccc(I)c(F)c2F)nc(C(=O)O)c1Cl [Compound 141, 4-amino-3-chloro-6-(2,3-difluoro-4-iodophenyl)-5-fluoropicolinic acid]	75 to 84%	85 to 94%	7 g ai/ha	28 g ai/ha	75 to 84%	95 to 100%	15 g ai/ha	33 g ai/ha	75 to 84%	85 to 94%	4 g ai/ha	40 g ai/ha	75 to 84%	85 to 94%	1 g ai/ha	75 to 84%	85 to 94%	14 g ai/ha	43 g ai/ha	85 to 94%	pest or weed control at 70 g/ha [6, 13]: 95 to 100%; GR20 HORSS [6]: 1 g ai/ha; pest or weed control at 35 g/ha [7, 14]: 95 to 100%; pest or weed control at 70 g/ha [7, 14]: 95 to 100%; GR50 VIOSS [7]: 7 g ai/ha; GR80 VIOSS [7]: 11 g ai/ha
Nc1c(F)c(-c2ccc(I)c(F)c2)nc(C(=O)O)c1Cl [Compound 157]	85 to 94%	85 to 94%	6 g ai/ha	18 g ai/ha	60 to 74%	75 to 84%	21 g ai/ha	64 g ai/ha	75 to 84%	85 to 94%	11 g ai/ha	34 g ai/ha	75 to 84%	75 to 84%	1 g ai/ha	30 to 44%	60 to 74%	50 g ai/ha	>140 g ai/ha	85 to 94%	pest or weed control at 70 g/ha [6, 13]: 95 to 100%; GR20 HORSS [6]: 1 g ai/ha; pest or weed control at 35 g/ha [7, 14]: 95 to 100%; pest or weed control at 70 g/ha [7, 14]: 95 to 100%; GR50 VIOSS [7]: 1 g ai/ha; GR80 VIOSS [7]: 4 g ai/ha
Nc1c(F)c(-c2ccc(Br)cc2F)nc(C(=O)O)c1Cl [Compound 163]	75 to 84%	85 to 94%	8 g ai/ha	36 g ai/ha	75 to 84%	95 to 100%	5 g ai/ha	24 g ai/ha	75 to 84%	85 to 94%	3 g ai/ha	27 g ai/ha	75 to 84%	75 to 84%	1 g ai/ha	75 to 84%	95 to 100%	13 g ai/ha	30 g ai/ha	85 to 94%	pest or weed control at 70 g/ha [6, 13]: 95 to 100%; GR20 HORSS [6]: 1 g ai/ha; pest or weed control at 35 g/ha [7, 14]: 75 to 84%; pest or weed control at 70 g/ha [7, 14]: 95 to 100%; GR50 VIOSS [7]: 14 g ai/ha; GR80 VIOSS [7]: 29 g ai/ha
